Assay results: article PMC7875911 (Frontiers in Pharmacology, 2021)

How the values were obtained:
hCav2.2 = biological target: T1, hCav2.2 (Homo sapiens, UniProt Q00975); assay: cell-based
T1 construct: expressed in transfected cells; host or cells: HEK293 (HEK293T), transient calcium phosphate co-transfection
Description: Human embryonic kidney (HEK293T) cells containing the SV40 Large T-antigen were cultured at 37°C, 5% CO2 in Dulbecco’s Modified Eagle’s Medium (DMEM, Invitrogen Life Technologies, Australia), supplemented with 10% fetal bovine serum (FBS, Bovigen, Australia), 1% GlutaMAX and penicillin-streptomycin (Invitrogen, Australia). HEK293 cells were then transiently co-transfected with the different voltage-gated calcium channel isoforms and green fluorescent protein (GFP) for visualization, using the calcium phosphate method. cDNAs encoding mCav1.2 (a gift from Dr. D. Lipscombe; Addgene plasmid #26572) ([Helton et al., 2005]), rCav1.3 (a gift from Dr. D. Lipscombe; Addgene plasmid # 49,333) ([Xu and Lipscombe, 2001]), hCav2.1 (a gift from Dr. J. Striessnig), rCav2.2 (a gift from Dr. D. Lipscombe), hCav2.2 (a gift from Dr. D. Yue), hCav2.3 (purchased from GenScript United States Inc.) were co-transfected with β3, α2δ1 and GFP. After transfection, cells were plated on 12 mm cover glass and transferred to a 30°C incubator for 1–3 days.
Depolarization-activated Ca^2+ currents (ICa) in transfected HEK293 cells were recorded in the whole-cell patch clamp configuration. Data were recorded using a MultiClamp 700B amplifier, digitized with a DigiData1440 and controlled using Clampex10.7 software (Molecular Devices, United States). Currents were sampled at 100 kHz and filtered to 10 kHz, with leak and capacitive currents subtracted using a −P/4 protocol. […] Intracellular recording solution contained as follows (mM): 140 KGluconate, 5 NaCl, 2 MgCl2, 5 EGTA and 10 HEPES, pH 7.2 with KOH. Cells were continuously perfused with extracellular solution at a rate of ∼1.2 ml/min. […]
Statistical significance (p < 0.05) was determined using unpaired Student’s t-test or 1-way ANOVA followed by a Tukey multiple comparison. […]
Numerous HVA Cav channel isoforms are present in rat DRG neurons. […] We transiently co-transfected the individual Cav channel α-subunits of interest together with β3 and α2δ1 subunits in HEK293 cells and measured whole-cell I Ca currents by patch clamp. […]

Nav1.7 = settings: cited from earlier work
From the text: Loss-of-function mutation of the SCN9A gene that codes for Nav1.7 leads to congenital insensitivity to pain ([Cox et al., 2006]), whereas SCN9A gain-of-function mutations causes paroxysmal extreme pain disorder and primary erythromelalgia ([Dib-Hajj et al., 2008]). […] Homology of VGIC voltage sensing domains, and particularly those of Nav channels, is at the crux of the development of genuinely selective Nav1.7 modulators ([Kingwell, 2019]). Given the VSD functional importance in neuronal VGICs and their structural homology, it is not surprising that VDPs target related channel families. […] Mammalian Nav and Cav α-subunits are structurally homologous but differ in their gating mechanisms ([Kubota et al., 2017]).

T1 sequence (P54289 25-956): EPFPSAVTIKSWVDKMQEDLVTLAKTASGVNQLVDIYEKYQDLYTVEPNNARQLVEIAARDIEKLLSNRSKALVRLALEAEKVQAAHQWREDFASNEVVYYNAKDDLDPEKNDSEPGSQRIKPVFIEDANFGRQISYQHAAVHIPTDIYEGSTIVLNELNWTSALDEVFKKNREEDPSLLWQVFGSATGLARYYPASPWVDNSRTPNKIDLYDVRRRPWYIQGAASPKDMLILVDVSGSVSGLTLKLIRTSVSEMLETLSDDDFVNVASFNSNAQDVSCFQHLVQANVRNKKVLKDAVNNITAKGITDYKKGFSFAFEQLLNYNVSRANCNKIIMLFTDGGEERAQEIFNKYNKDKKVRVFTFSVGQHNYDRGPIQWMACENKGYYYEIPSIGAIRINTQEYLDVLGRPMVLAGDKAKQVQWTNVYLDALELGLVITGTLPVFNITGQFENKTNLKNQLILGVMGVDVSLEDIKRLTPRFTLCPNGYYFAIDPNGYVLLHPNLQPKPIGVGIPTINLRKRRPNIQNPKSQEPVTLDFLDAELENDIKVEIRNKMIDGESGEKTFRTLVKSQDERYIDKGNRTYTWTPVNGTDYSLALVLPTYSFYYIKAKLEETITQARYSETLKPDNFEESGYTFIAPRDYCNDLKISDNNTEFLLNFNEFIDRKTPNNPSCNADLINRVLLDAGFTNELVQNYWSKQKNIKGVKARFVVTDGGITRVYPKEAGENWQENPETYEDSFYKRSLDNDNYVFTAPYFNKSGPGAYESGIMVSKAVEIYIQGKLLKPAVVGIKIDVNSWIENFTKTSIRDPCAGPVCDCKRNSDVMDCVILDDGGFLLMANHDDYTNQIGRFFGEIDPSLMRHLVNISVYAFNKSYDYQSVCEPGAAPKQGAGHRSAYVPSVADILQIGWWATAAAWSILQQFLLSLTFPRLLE
T1 sequence (P54289 957-1103): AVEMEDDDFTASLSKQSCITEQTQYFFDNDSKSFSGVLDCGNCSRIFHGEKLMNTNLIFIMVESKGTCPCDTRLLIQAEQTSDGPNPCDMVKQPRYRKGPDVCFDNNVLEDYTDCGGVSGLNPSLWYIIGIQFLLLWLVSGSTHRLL
T1 sequence (Q00975 whole entry): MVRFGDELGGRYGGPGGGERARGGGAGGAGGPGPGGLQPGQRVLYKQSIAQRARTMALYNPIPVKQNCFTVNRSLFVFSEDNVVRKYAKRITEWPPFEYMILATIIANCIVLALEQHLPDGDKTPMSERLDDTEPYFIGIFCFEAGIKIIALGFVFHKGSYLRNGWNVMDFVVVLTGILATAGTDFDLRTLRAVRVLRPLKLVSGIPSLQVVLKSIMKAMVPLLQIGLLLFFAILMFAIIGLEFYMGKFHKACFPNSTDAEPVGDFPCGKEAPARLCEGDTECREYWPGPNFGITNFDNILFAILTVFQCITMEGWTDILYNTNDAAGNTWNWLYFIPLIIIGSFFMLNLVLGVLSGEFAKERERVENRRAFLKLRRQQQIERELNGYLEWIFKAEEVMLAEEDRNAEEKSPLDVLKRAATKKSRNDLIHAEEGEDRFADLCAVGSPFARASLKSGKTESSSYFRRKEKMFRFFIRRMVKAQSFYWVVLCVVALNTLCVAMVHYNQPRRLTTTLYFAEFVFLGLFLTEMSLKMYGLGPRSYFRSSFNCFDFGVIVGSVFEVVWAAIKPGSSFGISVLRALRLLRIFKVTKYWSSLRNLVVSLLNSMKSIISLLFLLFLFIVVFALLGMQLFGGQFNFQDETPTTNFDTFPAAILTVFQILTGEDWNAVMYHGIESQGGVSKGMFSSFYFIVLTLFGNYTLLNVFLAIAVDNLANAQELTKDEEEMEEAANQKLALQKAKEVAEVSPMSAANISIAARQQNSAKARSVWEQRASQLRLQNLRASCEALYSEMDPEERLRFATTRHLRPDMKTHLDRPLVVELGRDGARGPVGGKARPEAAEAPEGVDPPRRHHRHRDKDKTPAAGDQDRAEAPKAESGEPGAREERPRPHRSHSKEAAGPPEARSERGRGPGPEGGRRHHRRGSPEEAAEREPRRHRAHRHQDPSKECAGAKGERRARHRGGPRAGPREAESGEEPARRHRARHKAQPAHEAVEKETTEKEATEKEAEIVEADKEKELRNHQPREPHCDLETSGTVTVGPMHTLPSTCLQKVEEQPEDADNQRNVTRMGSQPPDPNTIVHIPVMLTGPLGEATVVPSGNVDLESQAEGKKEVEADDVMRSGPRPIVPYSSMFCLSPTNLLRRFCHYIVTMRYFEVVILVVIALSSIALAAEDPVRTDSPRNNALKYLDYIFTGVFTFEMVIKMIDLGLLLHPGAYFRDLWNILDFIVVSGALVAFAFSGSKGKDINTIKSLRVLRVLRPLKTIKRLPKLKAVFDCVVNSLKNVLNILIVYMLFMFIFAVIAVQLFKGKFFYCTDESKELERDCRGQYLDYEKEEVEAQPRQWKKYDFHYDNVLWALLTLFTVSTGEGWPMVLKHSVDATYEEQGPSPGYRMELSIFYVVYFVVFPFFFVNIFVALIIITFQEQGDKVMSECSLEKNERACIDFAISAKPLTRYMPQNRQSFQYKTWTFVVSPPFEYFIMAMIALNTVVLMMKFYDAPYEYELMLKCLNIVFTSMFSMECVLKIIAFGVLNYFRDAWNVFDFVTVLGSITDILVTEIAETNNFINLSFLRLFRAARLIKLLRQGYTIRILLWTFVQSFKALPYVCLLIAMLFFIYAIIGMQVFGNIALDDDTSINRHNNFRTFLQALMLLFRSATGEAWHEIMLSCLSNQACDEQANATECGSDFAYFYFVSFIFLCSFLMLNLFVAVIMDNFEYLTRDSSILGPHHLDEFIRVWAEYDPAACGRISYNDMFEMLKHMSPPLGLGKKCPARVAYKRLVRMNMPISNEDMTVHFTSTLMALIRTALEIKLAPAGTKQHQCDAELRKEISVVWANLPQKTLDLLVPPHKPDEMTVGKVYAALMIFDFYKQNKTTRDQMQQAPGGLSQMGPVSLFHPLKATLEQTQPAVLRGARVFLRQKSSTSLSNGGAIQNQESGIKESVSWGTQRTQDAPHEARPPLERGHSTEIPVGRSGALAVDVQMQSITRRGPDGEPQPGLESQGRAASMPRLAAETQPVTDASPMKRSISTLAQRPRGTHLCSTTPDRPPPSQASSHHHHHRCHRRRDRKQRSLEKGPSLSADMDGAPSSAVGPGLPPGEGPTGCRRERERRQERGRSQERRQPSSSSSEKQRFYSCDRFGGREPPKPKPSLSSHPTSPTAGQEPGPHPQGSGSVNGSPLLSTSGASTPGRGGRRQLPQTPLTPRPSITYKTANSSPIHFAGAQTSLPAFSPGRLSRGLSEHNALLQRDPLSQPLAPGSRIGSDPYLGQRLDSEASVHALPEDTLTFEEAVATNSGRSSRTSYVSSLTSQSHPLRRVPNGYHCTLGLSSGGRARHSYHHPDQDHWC
T1 sequence (P54284 whole entry, further chain): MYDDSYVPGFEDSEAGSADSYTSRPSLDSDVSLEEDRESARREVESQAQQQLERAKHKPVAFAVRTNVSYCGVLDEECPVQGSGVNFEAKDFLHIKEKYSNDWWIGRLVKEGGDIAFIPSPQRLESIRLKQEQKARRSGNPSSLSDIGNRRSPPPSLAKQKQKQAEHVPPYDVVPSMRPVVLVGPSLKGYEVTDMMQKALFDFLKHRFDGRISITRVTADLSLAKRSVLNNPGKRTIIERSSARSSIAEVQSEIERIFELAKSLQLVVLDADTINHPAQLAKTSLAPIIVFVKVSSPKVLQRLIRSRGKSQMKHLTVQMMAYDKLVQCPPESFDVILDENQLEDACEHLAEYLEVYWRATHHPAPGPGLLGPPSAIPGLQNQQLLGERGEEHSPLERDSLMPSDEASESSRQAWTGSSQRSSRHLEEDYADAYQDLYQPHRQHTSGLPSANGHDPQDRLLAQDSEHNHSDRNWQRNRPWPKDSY

Structure (SMILES): CSCC[C@@H]1NC(=O)[C@H](Cc2ccc(O)cc2)NC(=O)[C@H](CCCNC(=N)N)NC(=O)[C@@H](NC(=O)[C@@H](N)CC(=O)O)CSSC[C@@H]2NC(=O)[C@@H]3CSSC[C@@H](C(=O)N[C@@H](C)C(=O)N[C@@H](Cc4c[nH]c5ccccc45)C(=O)N[C@@H](CC(=O)O)C(=O)N[C@@H](Cc4ccccc4)C(=O)N[C@H](C(=O)N[C@@H](Cc4ccccc4)C(=O)N[C@H](C(=O)O)[C@@H](C)O)[C@@H](C)O)NC(=O)[C@H](Cc4ccc(O)cc4)NC(=O)[C@H](CCCCN)NC(=O)[C@H](CCSC)NC(=O)[C@H](CCCCN)NC(=O)[C@H](CCCNC(=N)N)NC(=O)[C@H](CCCCN)NC(=O)[C@H](CSSC[C@H](NC(=O)[C@H](CC(=O)O)NC(=O)CNC(=O)[C@H](Cc4ccccc4)NC1=O)C(=O)N[C@@H](CCC(=O)O)C(=O)N[C@@H](CCCCN)C(=O)N[C@@H](CC(=O)O)C(=O)N[C@@H](CCC(=O)O)C(=O)N[C@@H](CC(=O)O)C(=O)N3)NC(=O)CNC(=O)[C@H](CC(C)C)NC(=O)[C@H](Cc1c[nH]cn1)NC(=O)[C@H](CCCCN)NC2=O [Pn3a, µ-Theraphotoxin-Pn3a]
- effect on depolarization-activated hCav2.2 current kinetics (in words) (hCav2.2): not altered
- inhibition at 10 µM (hCav2.2; HEK293, read-out: inhibition of human Cav2.2-mediated current): 71.8 ± 0.6%
